Tested on: 138582-337-R-J1-PDC complex spheroid viability
Assay: Anticancer human tumor 138582-337-R-J1-PDC patient-derived Merkel cell tumor cell line growth inhibition
Settings: for IC50: curve of first compound; for viability, T/C: stronger effect = lower value
Procedure, shortened: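 Complex spheroids of tumor cells with HUVEC and human MSCs, exposed to iadademstat combined with other agents. Each agent tested in half-log steps from near clinical Cmax (else 10 microM top), DMSO ≤0.25%.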

[1] = second compound 0.1 µM, first compound 0.000316 µM
[2] = second compound 0.1 µM, first compound 0.001 µM
[3] = second compound 0.1 µM, first compound 0.00316 µM
[4] = second compound 0.1 µM, first compound 0.01 µM
[5] = second compound 0.1 µM, first compound 0.0316 µM
[6] = second compound 0.1 µM, first compound 0.1 µM
[7] = second compound 0.316 µM, first compound 0.000316 µM
[8] = second compound 0.316 µM, first compound 0.001 µM
[9] = second compound 0.316 µM, first compound 0.00316 µM
[10] = second compound 0.316 µM, first compound 0.01 µM
[11] = second compound 0.316 µM, first compound 0.0316 µM
[12] = second compound 0.316 µM, first compound 0.1 µM
[13] = second compound 1 µM, first compound 0.000316 µM
[14] = second compound 1 µM, first compound 0.001 µM
[15] = second compound 1 µM, first compound 0.00316 µM
[16] = second compound 1 µM, first compound 0.01 µM
[17] = second compound 1 µM, first compound 0.0316 µM
[18] = second compound 1 µM, first compound 0.1 µM
[19] = second compound 3.16 µM, first compound 0.000316 µM
[20] = second compound 3.16 µM, first compound 0.001 µM
[21] = second compound 3.16 µM, first compound 0.00316 µM
[22] = second compound 3.16 µM, first compound 0.01 µM
[23] = second compound 3.16 µM, first compound 0.0316 µM
[24] = second compound 3.16 µM, first compound 0.1 µM
[25] = second compound 10 µM, first compound 0.000316 µM
[26] = second compound 10 µM, first compound 0.001 µM
[27] = second compound 10 µM, first compound 0.00316 µM
[28] = second compound 10 µM, first compound 0.01 µM
[29] = second compound 10 µM, first compound 0.0316 µM
[30] = second compound 10 µM, first compound 0.1 µM
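Throughout, for viability, T/C: 100% = DMSO vehicle control viability.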

Compound | IC50 (second compound 0.1 µM) [nM] | IC50 (second compound 0.316 µM) [nM] | IC50 (second compound 1 µM) [nM] | IC50 (second compound 3.16 µM) [nM] | IC50 (second compound 10 µM) [nM] | viability, T/C [3] [%] | viability, T/C [4] [%] | viability, T/C [5] [%] | viability, T/C [6] [%] | viability, T/C [9] [%] | viability, T/C [10] [%] | viability, T/C [11] [%] | viability, T/C [12] [%] | viability, T/C [15] [%] | viability, T/C [16] [%] | viability, T/C [17] [%] | viability, T/C [18] [%] | viability, T/C [21] [%] | viability, T/C [22] [%] | viability, T/C [23] [%] | further results
CC(C)CC(NC(=O)C(Cc1ccccc1)NC(=O)c1cnccn1)B(O)O (stereo not given) + NC1CCC(NC2CC2c2ccccc2)CC1 | 1.03 | 1.01 | 0.946 | 0.951 | 0.842 | 0.5 | 0.19 | 0.22 | 0.28 | 0.83 | 0.29 | 0.16 | 0.25 | 0.91 | 0.12 | 0.14 | 0.29 | 1.46 | 0.18 | 0.15 | viability, T/C [1]: 125%; viability, T/C [2]: 51.3%; viability, T/C [7]: 116%; viability, T/C [8]: 50.6%; viability, T/C [13]: 114%; viability, T/C [14]: 46.8%; viability, T/C [19]: 116%; viability, T/C [20]: 47%; viability, T/C [24]: 0.25%; viability, T/C [25]: 105%; viability, T/C [26]: 40.3%; viability, T/C [27]: 0.75%; viability, T/C [28]: 0.3%; viability, T/C [29]: 0.22%; viability, T/C [30]: 0.24%
CC(C)CC(NC(=O)CNC(=O)c1cc(Cl)ccc1Cl)B1OC(=O)CC(CC(=O)O)(C(=O)O)O1 (stereo not given) + NC1CCC(NC2CC2c2ccccc2)CC1 | 8.89 | 8.97 | 10 | 8.03 | 8.49 | 124 | 42.3 | 6.66 | 0.46 | 115 | 42.9 | 11.4 | 0.49 | 120 | 50.1 | 7.89 | 0.25 | 112 | 37.1 | 9.88 | viability, T/C [1]: 101%; viability, T/C [2]: 129%; viability, T/C [7]: 109%; viability, T/C [8]: 129%; viability, T/C [13]: 94.4%; viability, T/C [14]: 115%; viability, T/C [19]: 104%; viability, T/C [20]: 98.8%; viability, T/C [24]: 0.47%; viability, T/C [25]: 89.8%; viability, T/C [26]: 105%; viability, T/C [27]: 101%; viability, T/C [28]: 42%; viability, T/C [29]: 7.38%; viability, T/C [30]: 0.96%
COc1cc(Nc2ncc3c(n2)-c2ccc(Cl)cc2C(c2c(F)cccc2OC)=NC3)ccc1C(=O)O + NC1CCC(NC2CC2c2ccccc2)CC1 | > 1000 | > 1000 | > 1000 | > 1000 | > 1000 | 89.6 | 97.8 | 85.2 | 83.3 | 99.2 | 91.4 | 91.4 | 86.8 | 89.6 | 93.3 | 88.1 | 98 | 98.2 | 94.9 | 87.1 | viability, T/C (second compound 0.1 µM, first compound 0.316 µM): 93%; viability, T/C (second compound 0.1 µM, first compound 1 µM): 88.3%; viability, T/C (second compound 0.316 µM, first compound 0.316 µM): 98.2%; viability, T/C (second compound 0.316 µM, first compound 1 µM): 90.1%; viability, T/C (second compound 1 µM, first compound 0.316 µM): 96.3%; viability, T/C (second compound 1 µM, first compound 1 µM): 84.1%; viability, T/C [24]: 78.9%; viability, T/C (second compound 3.16 µM, first compound 0.316 µM): 74.7%; viability, T/C (second compound 3.16 µM, first compound 1 µM): 83%; viability, T/C [27]: 99.9%; viability, T/C [28]: 98.6%; viability, T/C [29]: 90.5%; viability, T/C [30]: 76.9%; viability, T/C (second compound 10 µM, first compound 0.316 µM): 87.2%; viability, T/C (second compound 10 µM, first compound 1 µM): 74.2%
